Results published in PubChem BioAssay AID1552 (Sanford-Burnham Center for Chemical Genomics, 2009).
Activity calls are given as the source filed them. The rule behind the calls is not given here.

What follows are molecules tested against Ubiquitin-conjugating enzyme E2 N (Homo sapiens) (UniProt P61088) (assay: UBE2N binders by NMR, biophysical, purified protein (AID 1552)). Conditions: NMR binding to purified UBE2N.
Chain of Ubiquitin-conjugating enzyme E2 N (Homo sapiens) (P61088 whole entry, looked up): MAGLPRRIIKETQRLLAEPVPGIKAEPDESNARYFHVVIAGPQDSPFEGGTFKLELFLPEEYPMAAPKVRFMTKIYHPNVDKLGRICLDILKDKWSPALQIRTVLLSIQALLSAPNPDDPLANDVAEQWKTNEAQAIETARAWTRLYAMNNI
In the case of O=S1(=O)CCC2CC=CCC21 (configuration not stated), the Kd is reported as > 4 mM (inactive).
In the case of Cc1ccc(N2C(=O)CC(Sc3ncn[nH]3)C2=O)cc1 (configuration not stated), the Kd is reported as > 4 mM (inactive).
With O=C(Nn1cnnc1)c1csc2c1CCCC2 the Kd was > 4 mM (inactive).
In the case of CC(=O)Nc1nnc(-c2ccccc2S(C)(=O)=O)o1, the Kd is reported as > 4 mM (inactive).
CSc1nc(NC(C)(C)C)nc(N2CCOCC2)n1 was tested, and the Kd was > 4 mM (inactive).
O=C1NC(=S)N/C1=C\c1ccccc1F was tested, and the Kd was > 4 mM (inactive).
With CC(=O)c1cc(C(N)=O)c(=S)[nH]c1C the Kd was > 4 mM (inactive).
In the case of Nc1ccc(-c2cn3c(n2)SCC3)cc1, the Kd is reported as > 4 mM (inactive).
For O=C(O)c1ccc(CN2CCOCC2)cc1, the Kd was > 4 mM (inactive).
In the case of COc1ccc(-c2nnsc2N)cc1, the Kd is reported as > 4 mM (inactive).
O=C1CC(=O)N(c2ccccc2)c2ccccc21 was tested, and the Kd was > 4 mM (inactive).
In the case of CSc1cc(C)[nH]c(=O)n1, the Kd is reported as > 4 mM (inactive).
With CN(C)N1C(=O)c2ccccc2C1=O the Kd was > 4 mM (inactive).
With CN1C2CC3C[C@H]1C(O3)C2O (some centres not stated) the Kd was > 4 mM (inactive).
For N=c1n(N)c2ccccc2n1CCO, the Kd was > 4 mM (inactive).
In the case of C=C1C(=O)O[C@@H]2C[C@@]3(C)CCC[C@H](C)C3=C[C@H]12, the Kd is reported as > 4 mM (inactive).
In the case of NC(=O)c1c[nH]c2ccccc12, the Kd is reported as > 4 mM (inactive).
CC1SC(=NC(=O)c2ccco2)NC1=O (configuration not stated) was tested, and the Kd was > 4 mM (inactive).
With C/C(=N\NC(N)=S)C(=O)O the Kd was > 4 mM (inactive).
For O=C(O)C(O)C(O)C(O)C(O)C(=O)O (configuration not stated), the Kd was > 4 mM (inactive).
c1ccc(-c2noc(-c3ccco3)n2)nc1 was tested, and the Kd was > 4 mM (inactive).
O=C(O)c1ccnc2ccccc12 was tested, and the Kd was > 4 mM (inactive).
For COC(=O)c1oc2ccc(Cl)cc2c1NC(C)=O, the Kd was > 4 mM (inactive).
For CS(=O)(=O)Nc1nnc(Cc2ccccc2)s1, the Kd was > 4 mM (inactive).
In the case of Cc1cc(=O)n(CCc2ccccc2)c(O)c1C#N, the Kd is reported as > 4 mM (inactive).
With CC1(C)C2CC(=O)[C@]3(C)C(CC[C@@]4(C)[C@H](c5ccoc5)OC(=O)[C@H]5O[C@]543)[C@@]2(C)C(=O)C[C@H]1O (some centres not stated) the Kd was > 4 mM (inactive).
COC(=O)CCC(C)[C@H]1CCC2C3C(C[C@H](O)[C@@]21C)[C@@]1(C)CC[C@@H](O)C[C@H]1C[C@H]3O (some centres not stated) was tested, and the Kd was > 4 mM (inactive).
In the case of Cc1csc(SCC(=O)N2CCCC2)n1, the Kd is reported as > 4 mM (inactive).
With CN1CCN(C(=S)NC(=O)c2ccn(C)n2)CC1 the Kd was > 4 mM (inactive).
In the case of Cc1cc(C)c(-c2cc(C(F)(F)F)no2)c(=O)[nH]1, the Kd is reported as > 4 mM (inactive).
In the case of Nc1nc2n(c1C(=O)c1ccccc1)CCC2, the Kd is reported as > 4 mM (inactive).
O=C1c2cccc3cc(S(=O)(=O)O)cc(c23)C(=O)N1O was tested, and the Kd was > 4 mM (inactive).
In the case of c1ccc(-c2csc(Nc3cccnc3)n2)nc1, the Kd is reported as > 4 mM (inactive).
O=C(O)C1Cc2c([nH]c3ccccc23)CN1 (configuration not stated) was tested, and the Kd was > 4 mM (inactive).
In the case of Cc1ccc(C(=O)n2cnnc2N)cc1C, the Kd is reported as > 4 mM (inactive).
With Cc1nc(-c2ccccc2)ncc1CO the Kd was > 4 mM (inactive).
OC(c1ccccc1)c1ccccn1 (configuration not stated) was tested, and the Kd was > 4 mM (inactive).
For Cc1n[nH]c(C)c1N, the Kd was > 4 mM (inactive).
Cc1cc(C)n(-c2ccc(N)cc2)n1 was tested, and the Kd was > 4 mM (inactive).
OCc1snnc1-c1ccccc1 was tested, and the Kd was > 4 mM (inactive).
For O=c1n(-c2cccc(Cl)c2)c(=O)n2n1CCC2, the Kd was > 4 mM (inactive).
With CC(=O)c1cc2c(cc1O)OC(C)(C)C=C2 the Kd was > 4 mM (inactive).
For [O-][n+]1c2ccccc2[n+]([O-])c2cc(O)ccc21, the Kd was > 4 mM (inactive).
With O=C(CSc1nnc2ccccn12)N1CCOCC1 the Kd was > 4 mM (inactive).
For Cc1ccc(CCNc2ccccc2)c[n+]1[O-], the Kd was > 4 mM (inactive).
In the case of Cc1cc(=O)n(CC(C)C)c(O)c1C#N, the Kd is reported as > 4 mM (inactive).
For Cc1[nH]ccc2c1[nH]c1cc(=O)ccc12, the Kd was > 4 mM (inactive).
For NCc1nc2ccccc2s1, the Kd was > 4 mM (inactive).
In the case of O=S1(=O)C=CC(Nc2ccccc2)C1 (configuration not stated), the Kd is reported as > 4 mM (inactive).
CCOC(=O)CC1Sc2ccccc2NC1=S (configuration not stated) was tested, and the Kd was > 4 mM (inactive).
With CC(C)(C)Cc1nc(-c2ccccn2)no1 the Kd was > 4 mM (inactive).
For S=C(c1ccc(N2CCOCC2)cc1)N1CCCCC1, the Kd was > 4 mM (inactive).
In the case of Cc1cc(O)cc(=O)n1CCCC(=O)O, the Kd is reported as > 4 mM (inactive).
With Oc1ccc([C@H]2Oc3cc(O)cc(O)c3C[C@H]2O)cc1 the Kd was > 4 mM (inactive).
With O=C(Nc1nnc(-c2ccco2)o1)c1ccc([N+](=O)[O-])o1 the Kd was > 4 mM (inactive).
In the case of Cc1cc(C)n(-c2ccc(Cl)nn2)n1, the Kd is reported as > 4 mM (inactive).
In the case of COc1ccccc1-c1cn[nH]c(=S)n1, the Kd is reported as > 4 mM (inactive).
CSc1ncnc2nc[nH]c12 was tested, and the Kd was > 4 mM (inactive).
In the case of NCCc1cnc[nH]1, the Kd is reported as > 4 mM (inactive).
In the case of O=S1(=O)NC(=NCc2ccco2)c2ccccc21, the Kd is reported as > 4 mM (inactive).
For CCC(=O)Nc1cccc(NC(C)=O)c1, the Kd was > 4 mM (inactive).
With O=C(Nc1ccccc1)c1cnc2n(c1=O)CCS2 the Kd was > 4 mM (inactive).
For NC(=O)C1CCN(C(=O)Nc2ccccc2)CC1, the Kd was > 4 mM (inactive).
In the case of Cc1cc(C)n(S(=O)(=O)c2ccc(C(C)(C)C)cc2)n1, the Kd is reported as > 4 mM (inactive).
CC(=O)NC(=S)Nc1cccc(C(=O)O)c1C was tested, and the Kd was > 4 mM (inactive).
In the case of Nc1nnc(-c2ccncc2)s1, the Kd is reported as > 4 mM (inactive).
For Cc1ccc(NC(=O)CN2C(=O)CSC2=O)cc1, the Kd was > 4 mM (inactive).
S=C(NCc1ccco1)NN1CCOCC1 was tested, and the Kd was > 4 mM (inactive).
Cn1nnc2cc(C(=O)NC3=NCCS3)ccc21 was tested, and the Kd was > 4 mM (inactive).
For CC(=O)O[C@@H]1CC2C(C)(C)[C@H](O)C=C[C@]2(C)C2CC[C@@]3(C)[C@H](c4ccoc4)OC(=O)C4OC43[C@@]21C (some centres not stated), the Kd was > 4 mM (inactive).
In the case of CSc1ncc(CO)n1Cc1ccccc1, the Kd is reported as > 4 mM (inactive).
O=c1[nH]cc(N=Cc2ccc(F)cc2)c(=O)[nH]1 was tested, and the Kd was > 4 mM (inactive).
COc1ccc(N2C(=O)CCC2=O)c(OC)c1 was tested, and the Kd was > 4 mM (inactive).
In the case of O=C(O[C@@H]1Cc2c(O)cc(O)cc2O[C@@H]1c1ccc(O)c(O)c1)c1cc(O)c(O)c(O)c1, the Kd is reported as > 4 mM (inactive).
In the case of CC(=O)CS(=O)(=O)c1ccccc1, the Kd is reported as > 4 mM (inactive).
In the case of CNc1nnc(Cc2csc(N)n2)s1, the Kd is reported as > 4 mM (inactive).
In the case of CCCCCC1C(=O)CCC1CC(=O)OC (configuration not stated), the Kd is reported as > 4 mM (inactive).
In the case of CC1(C)C(=O)C=C[C@@]2(C)C1=C(O)C(=O)[C@]1(C)C2CC[C@@]2(C)[C@H](c3ccoc3)C[C@H]3O[C@]321 (some centres not stated), the Kd is reported as > 4 mM (inactive).
In the case of O=C(Nc1nccs1)c1ccc(=O)[nH]n1, the Kd is reported as > 4 mM (inactive).
For CC(CCC(=O)O)[C@H]1CCC2C3C[C@H](O)[C@@H]4C[C@H](O)CC[C@]4(C)C3CC[C@@]21C (some centres not stated), the Kd was > 4 mM (inactive).
With CN1C(=O)/C(=C/c2ccc(O)cc2O)SC1=S the Kd was > 4 mM (inactive).
With COC(=O)N(c1ccccc1)P1(=S)OCCO1 the Kd was > 4 mM (inactive).
For NC(=O)COc1ccccc1O, the Kd was > 4 mM (inactive).
In the case of NC(=O)c1cc2c(n(-c3ccccc3)c1=O)CCCC2=O, the Kd is reported as > 4 mM (inactive).
In the case of Cc1onc(-c2ccccc2)c1C(=O)O, the Kd is reported as > 4 mM (inactive).
For Nc1ncc2[nH]cnc2n1, the Kd was > 4 mM (inactive).
With O=C(/C=C/c1ccc(O)c(O)c1)O[C@@H]1C[C@](O)(C(=O)O)C[C@@H](O)[C@H]1O the Kd was > 4 mM (inactive).
